Data reported in patent US10865203B2, “Ligands selective to alpha 6 subunit-containing GABAA receptors and their methods of use” (UWM Research Foundation, Inc., priority 2015, dated 2020).
“Also recorded” adds a separate entry of the source.

Columns and labels:
[1] = tested on: c-Fos-ir neurons in the TNC of Wistar rats; test: Migraine model: capsaicin (i.c.)-induced neuronal activation in the TCC; assay type: in vivo, rat; conditions: i.p., capsaicin 10 nmol i.c., 2 hours after
Procedure: Intra-cisteral instillation of capsaicin. Under anesthesia with chloral hydrate (400 and 100 mg/kg, i.p., respectively, for inducing and maintaining), the rat received a midline skin incision from the occipital protuberance to the upper cervical area. After catheterization with a catheter (PE-10, SIMS Portex Ltd, Hythe, UK) inserted 3 mm deep into the cisterna magna, the rat was placed in a prone position for 6 h. Then, the capsaicin solution (10 nmol, 100 μL) was instilled through the catheter into the cisterna magna over 1 min. The rat was then placed in a reverse Trendelenburg position (−30 degrees) for 30 min in order to facilitate capsaicin distribution within the subarachnoid space, followed by the prone position for another 90 min. […]
Measurement of the total number of C-fos-ir neurons in the TCC. C-Fos-ir neurons, i.e., neurons with stained nuclei, were counted under a microscope (Olympus BX51, Essex, UK) by an observer blinded to the treatment group. […] The total number of c-Fos-ir TCC neurons were estimated based on the formular derived in our previous study (Fan et al., 2012): 16(N1+N2)/2+53(N2+N3)/2, where N1, N2, and N3 were the c-Fos-ir neuronal numbers measured at […] from the obex, respectively.

[2] = target: T1, α1,4,6β3δ receptors (Rattus norvegicus, UniProt P30191+P63079); test: Electrophysiology in Xenopus oocytes, delta-containing receptors; assay type: cell-based; conditions: measured at EC20
T1 construct: expressed in transfected cells; host or cells: Xenopus laevis oocytes injected with subunit mRNA (3:1:5)
Procedure: Mature female Xenopus laevis (Nasco, Fort Atkinson, Wis., USA) were anaesthetized in a bath of ice-cold 0.17% Tricain (Ethyl-m-aminobenzoat, Sigma-Aldrich, St. Louis, Mo., USA) before decapitation and transfer of the frog's ovary to ND96 medium (96 mM NaCl, 2 mM KCl, 1 mM MgCl2, 5 mM HEPES; pH 7.5). Following incubation in 1 mg/mL collagenase (Sigma-Aldrich, St. Louis, Mo., USA) for 30 min, stage 5 to 6 oocytes were singled out of the ovary and defolliculated using a platinum wire loop. Oocytes were stored and incubated at 18° C. in NDE medium (96 mM NaCl, 2 mM KCl, 1 mM MgCl2, 5 mM HEPES, 1.8 mM CaCl2; pH 7.5) that was supplemented with 100 U per mL-1 penicillin, 100 μg per mL-1 streptomycin and 2.5 mM pyruvate. Oocytes were injected with an aqueous solution of mRNA. A total of 2.5 ng of mRNA per oocyte was injected. Subunit ratio was 1:1:5 for αxβγ2 (x=1, 2, 3, 5) and 3:1:5 for α4/6β3γ2 and αβδ receptors. Injected oocytes were incubated for at least 36 h before electrophysiological recordings. Oocytes were placed on a nylon-grid in a bath of NDE medium. For current measurements, the oocytes were impaled with two microelectrodes (2-3MΩ), which were filled with 2 M KCl. The oocytes were constantly washed by a flow of 6 mL per min-1 NDE that could be switched to NDE containing GABA and/or drugs. […] All recordings were performed at room temperature at a holding potential of −60 mV using a Warner OC-725C TEV (Warner Instrument, Hamden, Conn., USA) or a Dagan CA-1B Oocyte Clamp or a Dagan TEV-200A TEV (Dagan Corporation, Mineapolis, Minn., USA). Data were digitized using a Digidata 1322A or 1550 data acquisition system (Axon Instruments, Union City, Calif., USA), recorded using Clampex 10.5 software (Molecular Devices, Sunnyvale, Calif., USA), and analyzed using Clampfit 10.5 and GraphPad Prism 6.0 (La Jolla, Calif., USA) software. Concentration-response data were fitted using the Hill equation. Data are given as mean±SEM from at least three oocytes of two batches.
For selected test compounds full dose response curves were recorded in α1-6β3γ2 receptors. For selected compounds, dose response curves in additional receptor subtypes (α1, 4, 6β3δ, α6β1, 2γ2, α1-6β3) were also obtained. For a wider panel of compounds, a two point screening pharmacology was obtained at 1 and 10 μM compound concentrations.

T1 sequence (P30191 20-453): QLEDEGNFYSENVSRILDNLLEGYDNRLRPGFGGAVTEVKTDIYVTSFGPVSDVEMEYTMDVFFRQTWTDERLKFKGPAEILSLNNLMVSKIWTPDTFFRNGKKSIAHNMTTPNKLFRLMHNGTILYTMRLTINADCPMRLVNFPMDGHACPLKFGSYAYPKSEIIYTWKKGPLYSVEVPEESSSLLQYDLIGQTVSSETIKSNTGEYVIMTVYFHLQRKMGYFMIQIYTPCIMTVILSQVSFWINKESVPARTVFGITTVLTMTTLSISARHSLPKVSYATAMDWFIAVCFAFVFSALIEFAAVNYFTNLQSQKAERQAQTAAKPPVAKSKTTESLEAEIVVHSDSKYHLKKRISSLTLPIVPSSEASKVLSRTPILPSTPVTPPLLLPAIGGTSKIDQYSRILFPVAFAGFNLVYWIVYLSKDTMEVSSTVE
T1 sequence (P63079 26-473): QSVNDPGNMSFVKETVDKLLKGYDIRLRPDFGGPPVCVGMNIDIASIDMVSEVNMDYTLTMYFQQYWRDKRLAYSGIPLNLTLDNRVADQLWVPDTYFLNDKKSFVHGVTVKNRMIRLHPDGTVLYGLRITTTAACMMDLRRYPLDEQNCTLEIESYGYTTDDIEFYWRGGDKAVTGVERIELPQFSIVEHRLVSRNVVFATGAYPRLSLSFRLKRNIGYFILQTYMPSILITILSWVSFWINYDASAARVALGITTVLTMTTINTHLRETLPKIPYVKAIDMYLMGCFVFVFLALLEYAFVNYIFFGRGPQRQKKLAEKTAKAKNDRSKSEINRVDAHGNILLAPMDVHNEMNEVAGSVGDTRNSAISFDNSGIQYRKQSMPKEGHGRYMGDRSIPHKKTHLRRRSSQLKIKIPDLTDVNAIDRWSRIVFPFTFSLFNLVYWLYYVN
T1 sequence (P18506 25-449 partner): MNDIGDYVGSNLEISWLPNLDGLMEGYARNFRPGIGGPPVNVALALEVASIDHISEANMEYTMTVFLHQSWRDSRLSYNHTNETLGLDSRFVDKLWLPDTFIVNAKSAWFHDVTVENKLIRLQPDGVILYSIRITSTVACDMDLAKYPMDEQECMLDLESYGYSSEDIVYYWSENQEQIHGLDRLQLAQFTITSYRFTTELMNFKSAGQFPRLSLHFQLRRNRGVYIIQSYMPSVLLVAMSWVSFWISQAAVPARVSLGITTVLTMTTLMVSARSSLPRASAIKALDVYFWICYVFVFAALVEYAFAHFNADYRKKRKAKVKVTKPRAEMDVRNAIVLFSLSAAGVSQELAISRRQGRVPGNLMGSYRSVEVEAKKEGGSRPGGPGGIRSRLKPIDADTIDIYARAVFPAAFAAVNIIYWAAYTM

Row | SMILES | number of c-Fos-ir neurons in the TNC induced by i.c. capsaicin [1] | Receptor potentiation in the α6β3δ receptor [2]
1 | COc1ccc(-n2nc3c4ccc(OC)cc4[nH]cc-3c2=O)cc1 [Compound 6, 7-Methoxy-2-(4-methoxyphenyl)-2,5-dihydro-3H-pyrazolo[4,3-c]quinolin-3-one] | significantly decreased; also recorded: reduces | 
2 | [2H]C([2H])([2H])Oc1ccc2c3nn(-c4ccc(OC)nc4)c(=O)c-3c[nH]c2c1 [DK-I-86-1, 7-Methoxy-d3-2-(6-methoxypyridin-3-yl)-2,5-dihydro-3H-pyrazolo[4,3-c]quinolin-3-one] |  | modulated
